Entries after “also recorded” stand apart in the source; their conditions may differ.
Legend:
[1] = tested on: MIA PaCa-2-luc pancreatic cancer xenografts; test: MIA PaCa-2-luc subcutaneous xenograft, 123B9-L2-Gem study; format: in vivo, human tumor cells in athymic nude mice
Procedure: Similarly, in a separate experiment we compared the efficacy of equimolar doses of Gemcitabine and 123B9-L2-Gem (Figure 3C, 3D).
(§1) Isothermal Titration Calorimetry (ITC) measurements were obtained with Model ITC200 from Microcal/GE Life Sciences. For in vivo studies, all drugs were diluted in 10% Tween-80, 10% DMSO, and 80% PBS.
(§2) 5 × 10^6 MIA PaCa-2-luciferase cells were used to establish bilateral subcutaneous tumors on the flanks of 8–10 week old male athymic nude mice. Studies were done as previously described. Treatment began when tumors reached a palpable size (∼50–100 mm^3) with 9 mice per group. All drugs were administered by tail vein injection twice per week for 4 weeks, for a total of 8 injections. […] BLI measurements were performed at the beginning and end of the study. During imaging, mice were placed in the imaging chamber and maintained with 2% isoflurane gas anesthesia at a flow rate of approximately 0.5–1 L/min per mouse. Anesthetized mice were injected IP with 150 mg/kg body weight D-Luciferin (Xenogen Corporation, Alameda, CA). After approximately 10 min, mice were imaged using a charge-coupled-device (CCD) camera coupled to the Xenogen in vivo imaging (IVIS) imaging system (Caliper Life Sciences, Inc., Hopkinton, MA).
Tumors were measured twice per week using calipers. […]

[2] = tested on: EphA3 ligand binding domain (EphA3-LBD); test: Isothermal titration calorimetry (ITC), EphA3 LBD; conditions: 50 mM phosphate buffer pH 6.5, 100 mM NaCl, ~50% sequence identity with the EphA2 LBD
Procedure: (§3) To further verify the binding affinity and selectivity of the resulting conjugates for the EphA2 ligand binding domain (LBD), we expressed and purified EphA2 and […]. These proteins were dissolved to a final concentration of 100 μM in 50 mM phosphate buffer (pH = 6.5), containing 100 mM NaCl.
(§4) All linear peptides and peptide mimetics were assembled using standard Fmoc peptide synthesis protocol with the Rink amide resin on 433A Peptide Synthesizer (Applied Bio-Systems). In general, in each coupling reaction, approximately 10 equivalents of Fmoc-amino acid, 0.45 M solution of HOBt/HBTU (9 equiv) in DMF, 2 M solution of DIEA in NMP were used, for about 9 minutes. Fmoc de-protection was performed with 20% piperidine in DMF for 10 min. Each peptide was subsequently cleaved from the resin and all protecting groups removed by exposure to a 94% TFA, 2 % water, 2% tri-isopropylsilane, 2% phenol mixture for approximately 3 h. The TFA mixture was subsequently removed under reduced pressure and the peptides were precipitated in diethyl ether, centrifuged, and washed with diethyl ether prior to drying in high vacuum. The crude peptides were purified by preparative reverse phase HPLC. The final compounds were characterized by NMR and MALDI-Mass. […] EphA2-LBD and EphA3-LDB were expressed as reported recently. […]

[3] = target: T1, EphA2 ligand binding domain (EphA2-LBD) (Homo sapiens, UniProt P29317); test: Isothermal titration calorimetry (ITC), EphA2 LBD; conditions: 50 mM phosphate buffer pH 6.5, 100 mM NaCl, as given in legend
T1 construct: made in house
Procedure: as §3, §4

[4] = tested on: MIA PaCa-2-luc pancreatic cancer xenografts; test: MIA PaCa-2-luc subcutaneous xenograft, YNH-L2-Gemcitabine study; format: in vivo, human tumor cells in athymic nude mice; conditions: for effect on tumor growth: 10 mg/kg Gemcitabine or equimolar conjugate, tail vein, twice per week for 4 weeks, 9 mice/group, caliper tumor volume and BLI; for survival time: Kaplan-Meier, days, mice sacrificed when moribund, Supplementary Figure S2 top
Procedure: MIA PaCa-2-luc cells were used to create bilateral subcutaneous xenografts in athymic nude mice. […] Cells were injected into each flank and then allowed to grow for approximately 1 week. At this point, mice were imaged using BLI and treatment was subsequently initiated. Mice were divided into 4 groups (PBS, Gemcitabine, YDH-L2-Gemcitabine, YNH-L2-Gemcitabine) with 9 mice/group. YDH-L2-Gemcitabine is a scrambled control, where the peptide attached to Gemcitabine should not be specific for EphA2 and, therefore, should not bind to the receptor. Animals were treated 2 times per week via tail vein injection for 4 weeks. A dose of 10 mg/kg Gemcitabine was used along with equimolar doses of YDH-L2-Gemcitabine and YNH-L2-Gemcitabine. At the end of 4 weeks, animals were again imaged and treatment was ended.
as §1, §2
Tumors were measured twice per week using calipers. For in vivo studies, data shown are the mean + SEM and for statistical comparisons we used the two-way Anova analyses (GraphPad). After their last injection, mice were kept for 1 additional week to monitor tumor growth and imaged at the end of that week. The mice were then kept to monitor for the effects of treatment on survival. Mice were kept until reaching a moribund status and they were then sacrificed at that time.

[5] = tested on: pancreatic cancer; conditions: 126 patients, 63 per group; ref [3]; cited from earlier work
Text: In 1997, Burris, et al. published a clinical study comparing Gemcitabine to 5-Fluoruracil (5-FU) for the treatment of pancreatic cancer. In this study, 126 patients were enrolled with 63 per treatment group. […] The median survival was 5.65 months for Gemcitabine and 4.41 months for 5-FU. […] This trial encouraged the ...

[6] = tested on: hENT1; design: method as in PMID 22978251; conditions: sodium-independent transporter; ref [4]; cited from earlier work
Text: (§5) Though there are multiple mechanisms of Gemcitabine resistance, one important mechanism revolves around expression of this protein. […] Patients with higher hENT1 expression have tumors that can more readily take ...

[7] = tested on: metastatic pancreatic cancer; design: method as in PMID 24131140; conditions: 861 patients, ref [36]; cited from earlier work
Text: There is a vital need to develop novel therapies that provide greater clinical benefit to patients without undue toxicity. A Phase 3 clinical study in patients with metastatic pancreatic cancer evaluated nab-Paclitaxel (Abraxane) + Gemcitabine versus Gemcitabine alone in a total of 861 patients.

[8] = tested on: tumors expressing hENT1; design: method as in PMID 16818496; conditions: high versus lower hENT1 expression; ref [5]; cited from earlier work
Text: as §5

T1 sequence (P29317 28-206 limits assumed): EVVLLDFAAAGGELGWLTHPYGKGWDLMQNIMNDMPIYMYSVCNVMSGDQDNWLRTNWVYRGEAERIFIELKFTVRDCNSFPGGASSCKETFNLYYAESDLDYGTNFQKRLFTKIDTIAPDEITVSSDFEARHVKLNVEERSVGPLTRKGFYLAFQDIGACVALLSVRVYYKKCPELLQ

| Compound | binding to EphA3 LBD (in words) [2] | effect on tumor growth [4] | survival time [4] | median survival [5] | patients alive at 12-month time point [5] | patients with clinical benefit [5] | also measured |
| --- | --- | --- | --- | --- | --- | --- | --- |
| CCCC[C@H](NC(=O)[C@@H]1CCCN1C(=O)[C@@H](NC(=O)[C@H](CO)NC(=O)[C@H](CC(=O)O)NC(=O)[C@@H]1CCCN1C(=O)[C@H](Cc1ccc(O)cc1)NC(=O)[C@H](C)NC(=O)[C@H](CO)NC(=O)COc1ccc(F)c(Cl)c1)C(C)C)C(=O)N[C@@H](CCO)C(=O)N[C@@H](CO)C(=O)N[C@@H](CCCCNC(=O)CCCc1cn(CCCCCC(=O)O[C@@H]2[C@@H](CO)O[C@@H](n3ccc(N)nc3=O)C2(F)F)nn1)C(N)=O [123B9-L2-Gem] | No appreciable binding was detected | – | – | – | – | – | survival time ([1]; Kaplan-Meier, days, mice sacrificed when moribund, Supplementary Figure S2 bottom): significantly longer than both untreated and Gemcitabine treated groups; also recorded: significant increase in survival time; also recorded: prolong survival; effect on tumor growth ([1]; equimolar doses, equivalent of 10 mg/Kg Gemcitabine, tail vein, twice per week for 4 weeks, caliper tumor volume and BLI, 10 mg/kg): significantly more effective than gemcitabine alone in suppressing tumor growth; also recorded: significant efficacy was observed; ΔH, binding to EphA2 LBD [3]: -11 kcal/mol |
| Nc1ccn([C@@H]2O[C@H](CO)[C@@H](O)C2(F)F)c(=O)n1 [Gemcitabine] | – | had a modest effect on tumor growth; also recorded: did not exhibit significant efficacy compared to mice treated with vehicle only as control | significant increase in the median survival time compared to untreated mice | 5.65 months | 18% | 23.8% | transport by hENT1 [6]: preferentially transport Gemcitabine; median survival [7]: 6.7 months; response rate [7]: 7%; survival rate at 1 year [7]: 22%; survival rate at 2 years [7]: 4%; survival advantage with high tumor hENT1 expression [8]: greater survival advantage with Gemcitabine treatment as compared to those with lower hENT1 expression |
| O=c1[nH]cc(F)c(=O)[nH]1 [5-FU, 5-Fluoruracil] | – | – | – | 4.41 months | 2% | 4.8% | – |
| CCCC[C@H](NC(=O)[C@@H]1CCCN1C(=O)[C@@H](NC(=O)[C@H](CO)NC(=O)[C@H](CC(=O)O)NC(=O)[C@@H]1CCCN1C(=O)[C@H](Cc1ccc(O)cc1)NC(=O)[C@H](C)NC(=O)[C@H](CO)NC(=O)[C@@H](N)Cc1ccc(O)cc1)C(C)C)C(=O)N[C@@H](CCO)C(=O)N[C@@H](CO)C(=O)N[C@@H](CCCCNC(=O)CCCc1cn(CCCCCC(=O)O[C@@H]2[C@@H](CO)O[C@@H](n3ccc(N)nc3=O)C2(F)F)nn1)C(N)=O [YNH-L2-Gem] | No appreciable binding was detected | significant efficacy was observed | prolong survival | – | – | – | effect on tumor growth ([4]; listed as YNH-L2-Gemcitabine): showed the greatest inhibition of tumor growth of all groups evaluated; also recorded: inhibits tumor growth in vivo to a greater extent as compared to Gemcitabine; survival time ([4]; listed as YNH-L2-Gemcitabine): significant increase in the median survival time compared to untreated mice |

From publication PMC4941374, “Therapy of pancreatic cancer via an EphA2 receptor-targeted delivery of gemcitabine” (Oncotarget, 2016)
